Laboratory results reported in paper PMC3597730, “Novel Phenolic Inhibitors of Small/Intermediate-Conductance Ca^2+-Activated K^+ Channels, KCa3.1 and KCa2.3” (PLoS ONE, 2013).
“And” between values parts separate entries of the source, which are not always exact repeats. Identical values can stand only once. “Also recorded” adds a separate entry of the source. Like-named read-outs stand apart in the source and are kept apart here.

Key:
[1] = target: T1, KCa3.1 channels in 3T3 fibroblasts (Mus musculus, UniProt O89109); experiment: Whole-cell patch-clamp of KCa3.1 currents in 3T3 fibroblasts; assay type: cell-based; settings: for remaining activity at 10 µM: read-out: % of control at 10 µM; for remaining activity at 50 µM: compound 50 µM, read-out: % of control at 50 µM; for KCa3.1 blocking effect (in words) / EC50: whole-cell; for KCa3.1 blocking effect (in words): concentrations up to 50 µM as in Table 1; for remaining activity at 1 µM: read-out: % of control at 1 µM
T1 construct: KCa3.1 channels in 3T3 fibroblasts; endogenous in cells; host or cells: 3T3-L1 mouse embryonic fibroblasts

[2] = target: T2, hKCa2.3 (Homo sapiens, UniProt Q9UGI6); experiment: Whole-cell patch-clamp of hKCa2.3 in COS7 cells; assay type: cell-based; settings: for remaining activity at 1 µM: COS-7, hKCa2.3, compound 1 µM, mean ± SEM, n ≥ 3, read-out: % of control at 1 µM; for KCa2.3 blocking effect (in words): micromolar concentrations
T2 construct: expressed in transfected cells; host or cells: COS7

[3] = target: T3, cloned human KCa3.1 channel (Homo sapiens, UniProt O15554); experiment: Inside-out patch recordings from hKCa3.1-overexpressing HEK293 cells; assay type: biochemical; settings: inside-out patches; compound 1 µM
T3 construct: expressed in transfected cells; gift of Khaled Houamed, University of Chicago

[4] = target: T4, hKv1.2 (Homo sapiens, UniProt P16389); experiment: Whole-cell patch-clamp of cloned hKv1.2; assay type: cell-based; settings: for remaining activity at 1 µM: hKv1.2, compound 1 µM, read-out: % of control at 1 µM
T4 construct: expressed in transfected cells; host or cells: B82 murine fibroblasts (Methods)

[5] = tested on: mixed KCa3.1 and KCa2.3 currents in PCAEC; experiment: Whole-cell patch-clamp of KCa currents in porcine coronary artery endothelial cells; assay type: cell-based; settings: whole-cell, compound 1 µM
[6] = KCa3.1 whole-cell current, 3T3 fibroblasts, 1 µM free Ca2+ in pipette, compound 10 µM, mean ± SEM, n ≥3
[7] = KCa3.1 whole-cell current, 3T3 fibroblasts, 1 µM free Ca2+ in pipette, mean ± SEM, n ≥3
[8] = EC50 of KCa3.1 inhibition, 3T3 fibroblasts
[9] = KCa3.1 whole-cell current, 3T3 fibroblasts, 1 µM free Ca2+ in pipette, compound 1 µM, mean ± SEM, n ≥3
[10] = 3T3 fibroblasts, read-out: EC50 of KCa3.1 inhibition

T4 sequence (P16389 whole entry): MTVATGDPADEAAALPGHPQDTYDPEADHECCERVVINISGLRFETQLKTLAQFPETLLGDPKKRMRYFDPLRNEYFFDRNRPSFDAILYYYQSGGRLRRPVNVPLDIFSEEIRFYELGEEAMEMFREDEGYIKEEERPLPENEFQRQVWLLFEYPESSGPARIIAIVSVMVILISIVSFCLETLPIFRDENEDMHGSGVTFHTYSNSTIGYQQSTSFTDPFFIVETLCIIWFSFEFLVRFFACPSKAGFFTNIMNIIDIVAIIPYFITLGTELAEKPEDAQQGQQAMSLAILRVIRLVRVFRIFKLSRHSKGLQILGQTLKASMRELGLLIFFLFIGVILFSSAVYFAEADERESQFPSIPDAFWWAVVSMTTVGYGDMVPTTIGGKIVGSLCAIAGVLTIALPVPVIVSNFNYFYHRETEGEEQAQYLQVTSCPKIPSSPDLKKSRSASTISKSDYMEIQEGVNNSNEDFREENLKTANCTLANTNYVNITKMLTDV
T2 sequence (Q9UGI6 whole entry): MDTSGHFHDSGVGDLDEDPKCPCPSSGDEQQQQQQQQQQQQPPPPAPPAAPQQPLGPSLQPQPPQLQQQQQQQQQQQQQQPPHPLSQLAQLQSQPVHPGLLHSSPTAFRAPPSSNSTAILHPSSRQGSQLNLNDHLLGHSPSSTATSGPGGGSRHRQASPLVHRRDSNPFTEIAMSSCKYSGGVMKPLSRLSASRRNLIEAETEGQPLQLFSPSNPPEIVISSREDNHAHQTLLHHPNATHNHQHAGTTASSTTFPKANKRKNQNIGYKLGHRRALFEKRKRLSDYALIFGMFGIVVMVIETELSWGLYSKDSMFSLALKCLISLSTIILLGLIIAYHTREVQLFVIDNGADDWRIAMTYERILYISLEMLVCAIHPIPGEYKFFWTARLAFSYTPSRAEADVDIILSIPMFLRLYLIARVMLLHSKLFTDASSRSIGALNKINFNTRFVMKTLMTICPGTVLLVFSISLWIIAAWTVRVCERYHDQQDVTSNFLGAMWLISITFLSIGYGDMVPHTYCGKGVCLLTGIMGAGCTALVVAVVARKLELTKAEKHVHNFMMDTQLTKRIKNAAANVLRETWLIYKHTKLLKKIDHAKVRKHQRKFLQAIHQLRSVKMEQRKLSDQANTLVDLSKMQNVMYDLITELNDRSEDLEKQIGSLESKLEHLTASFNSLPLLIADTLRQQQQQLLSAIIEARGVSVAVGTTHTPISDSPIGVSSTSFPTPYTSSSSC

| Compound | remaining activity at 10 µM [1, 6] [%] | remaining activity at 50 µM [1, 7] [%] | KCa3.1 blocking effect (in words) ([1]; 3T3 fibroblasts) | further results |
| --- | --- | --- | --- | --- |
| Cc1ccc(=O)n(-c2ccccc2)c1 [Pirfenidone, methyl-1-phenylpyridin-2(1H)-one, reference compound] | 98 ± 5 | 99 ± 14 | no effects |  |
| COc1cc(C(=O)O)ccc1O [Vanillic Acid, 4-hydroxy-3-methoxybenzoic acid] | 78 ± 11 | 46 ± 12 | weak or no blocking effects; also recorded: Weak inhibition | EC50 [1, 8]: > 10 µM |
| NC(=O)C[S+]([O-])C(c1ccccc1)c1ccccc1 (stereo not shown) [Modafinil, 2-benzhydrylsulfinylacetamide, reference compound] |  |  |  | EC50 [1, 8]: > 1 µM; remaining activity at 10 µM [1]: 33 ± 6% |
| c1cc2cc(c1)C[n+]1ccc(c3ccccc31)NCc1ccc(cc1)CNc1cc[n+](c3ccccc13)C2 [UCL1684, 6,10-diaza-3(1,3),8(1,4)-dibenzena-1,5(1,4)-diquinolinacyclodecaphane, reference compound] |  |  |  | % of control at 100 nM ([2]; hKCa2.3 current pre-activated by 1 µM SKA-31, n = 4): 2±1% |
| COc1cc(/C=C/C(=O)O)ccc1O [Ferulic Acid, (E)-3-(4-hydroxy-3-methoxyphenyl)propenoic acid] | 87 ± 8 | 32 ± 4 |  | EC50 [1, 8]: > 10 µM |
| O=C(O)c1cc(O)c(O)c(O)c1 [Gallic acid, 3,4,5-trihydroxybenzoic acid] | 101 ± 6 |  | weak or no blocking effects and no |  |
| OCCc1ccc(O)c(O)c1 [Hydroxytyrosol] | 108 ± 15 |  | weak or no blocking effects and no | remaining activity at 1 µM [1, 9]: 117 ± 9% |
| O=C(OC[C@H]1O[C@@H](OC(=O)c2cc(O)c(O)c(O)c2)[C@H](OC(=O)c2cc(O)c(O)c(O)c2)[C@@H](OC(=O)c2cc(O)c(O)c(O)c2)[C@@H]1OC(=O)c1cc(O)c(O)c(O)c1)c1cc(O)c(O)c(O)c1 [1,2,3,4,6-pentagalloyl glucose, [(2S,3R,4S,5R,6R)-2,3,5-tris[(3,4,5-trihydroxybenzoyl)oxy]-6-[(3,4,5-trihydroxybenzoyl)oxymethyl]oxan-4-yl] 3,4,5-trihydroxybenzoate] | 102 ± 6 |  | no |  |
| COc1cc(C(=O)OCc2cc(COC(=O)c3ccc(O)c(OC)c3)cc(COC(=O)c3ccc(O)c(OC)c3)c2)ccc1O [Compound 13a, [3,5-bis[(4-hydroxy-3-methoxy-benzoyl)oxymethyl]phenyl]methyl4-hydroxy-3-methoxy-benzoate] |  |  |  | remaining activity at 1 µM [1, 9]: 78 ± 6%; hKCa3.1 blocking effect (in words) [3]: no or minor blocking effects; also recorded: did not block; remaining activity at 1 µM [2]: 98 ± 1%; KCa2.3 blocking effect (in words) [2]: no blocking effects; block of hKv1.2 currents ([4]; 1 µM): 50%; remaining activity at 1 µM [4]: 46 ± 3% |
| Clc1ccccc1C(c1ccccc1)(c1ccccc1)n1cccn1 [TRAM-34, 1-[(2-chlorophenyl) (diphenyl)methyl]-1H-pyrazole, reference compound] |  |  | completely inhibited | remaining activity at 1 µM [1]: 1 ± 1%; KCa current, % of control [5]: 58±4% |
| O=C(O)c1cccnc1Nc1cccc(C(F)(F)F)c1 [Niflumic Acid, reference compound] | 106 ± 7 | 81 ± 4 | no blocking activity; also recorded: no blocking effects |  |
| Nc1ccc(O)c(C(=O)O)c1 [Mesalamine, 5-amino-2-hydroxybenzoic acid, reference compound] | 53 ± 7 | 46 ± 3 |  | remaining activity at 1 µM [1, 9]: 72 ± 6%; EC50 [1, 10]: ≥ 10 µM and 26 µM |
| O=C(/C=C/c1ccc(O)c(O)c1)OCCc1ccccc1 [Caffeic acid phenethyl ester, 2-phenylethyl (E)-3-(3,4-dihydroxyphenyl)propenoate] | 94 ± 6 |  | no |  |
| Oc1ccc(/C=C/c2cc(O)cc(O)c2)cc1 [Resveratrol, 5-[(E)-2-(4-Hydroxyphenyl)vinyl]benzene-1,3-diol] |  |  |  | EC50 [1, 10]: 10 µM and ~10 µM and 1 to 10 µM |
| O=C(OCc1cc(COC(=O)c2ccc(O)c(Cl)c2)cc(COC(=O)c2ccc(O)c(Cl)c2)c1)c1ccc(O)c(Cl)c1 [Compound 13c, [3,5-bis[(3-chloro-4-hydroxy-benzoyl)oxymethyl]phenyl]methyl3-chloro-4-hydroxy-benzoate] |  |  | weak to moderate blocking efficiency | remaining activity at 1 µM [1, 9]: 61 ± 17%; hKCa3.1 blocking effect (in words) [3]: no or minor blocking effects; also recorded: did not block; remaining activity at 1 µM [2]: 92 ± 4%; KCa2.3 blocking effect (in words) [2]: no blocking effects; hKv1.2 blocking effect (in words) ([4]; flufenamic acid and caffeic acid 10 and 50 µM, 13c 1 µM): no effect; remaining activity at 1 µM [4]: 104 ± 3% |
| CC(=O)Oc1ccccc1C(=O)O [2-acetyloxybenzoic acid, reference compound] | 108 ± 5 | 104 ± 7 | no effect |  |
| Cc1cccc(Nc2ccccc2C(=O)O)c1C [Mefenamic Acid, 2-((2,3-dimethylphenyl)amino)benzoic acid, reference compound] | 136 ± 28 |  | no blocking effects | remaining activity at 1 µM [1, 9]: 117 ± 4% |
